“And” between values parts separate entries of the source, which are not always exact repeats. Equal values may be shown once.
Test system: NCI-H1876 complex spheroid viability
Assay: Anticancer human tumor NCI-H1876 cell line growth inhibition [LSD1];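 note: spheroids exposed to compounds for one week before readout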;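 for viability, T/C: 100% = DMSO vehicle-treated spheroids so lower means fewer viable cells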
Settings: for viability, T/C: stronger effect = lower value; active = viability on the fitted dose curve at most 10% of control; inactive = the rest
Method in brief: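 Multicellular complex spheroids of tumor cells with human endothelial cells (HUVEC) and mesenchymal stem cells; the LSD1 inhibitor iadademstat was combined with standard-of-care or investigational agents. Top concentration at or near clinical Cmax, half-log dilutions; final DMSO ≤0.25%.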

[1] = curve of first compound, second compound 0.1 µM
[2] = curve of first compound, second compound 0.316 µM
[3] = curve of first compound, second compound 1 µM
[4] = curve of first compound, second compound 3.16 µM
[5] = curve of first compound, second compound 10 µM
[6] = second compound 0.1 µM, first compound 0.000316 µM
[7] = second compound 0.1 µM, first compound 0.001 µM
[8] = second compound 0.1 µM, first compound 0.00316 µM
[9] = second compound 0.1 µM, first compound 0.01 µM
[10] = second compound 0.1 µM, first compound 0.0316 µM
[11] = second compound 0.1 µM, first compound 0.1 µM
[12] = second compound 0.316 µM, first compound 0.000316 µM
[13] = second compound 0.316 µM, first compound 0.001 µM
[14] = second compound 0.316 µM, first compound 0.00316 µM
[15] = second compound 0.316 µM, first compound 0.01 µM
[16] = second compound 0.316 µM, first compound 0.0316 µM
[17] = second compound 0.316 µM, first compound 0.1 µM
[18] = second compound 1 µM, first compound 0.000316 µM
[19] = second compound 1 µM, first compound 0.001 µM
[20] = second compound 1 µM, first compound 0.00316 µM
[21] = second compound 1 µM, first compound 0.01 µM
[22] = second compound 1 µM, first compound 0.0316 µM
[23] = second compound 1 µM, first compound 0.1 µM
[24] = second compound 3.16 µM, first compound 0.000316 µM
[25] = second compound 3.16 µM, first compound 0.001 µM
[26] = second compound 3.16 µM, first compound 0.00316 µM
[27] = second compound 3.16 µM, first compound 0.01 µM
[28] = second compound 3.16 µM, first compound 0.0316 µM
[29] = second compound 3.16 µM, first compound 0.1 µM
[30] = second compound 10 µM, first compound 0.000316 µM
[31] = second compound 10 µM, first compound 0.001 µM
[32] = second compound 10 µM, first compound 0.00316 µM
[33] = second compound 10 µM, first compound 0.01 µM
[34] = second compound 10 µM, first compound 0.0316 µM
[35] = second compound 10 µM, first compound 0.1 µM

O=C(C=Cc1cccc(S(=O)(=O)Nc2ccccc2)c1)NO
inactive: viability, T/C (compound 0.00949 µM) 101% and 104% | viability, T/C (compound 0.03 µM) 98.9% and 104% | viability, T/C (compound 0.0949 µM) 75.1% and 73.1% | viability, T/C (compound 0.3 µM) 27.6% and 19.1%
0.176 µM and 0.156 µM: IC50 (curve of compound)
active: viability, T/C (compound 0.949 µM) 9.32% and 8.04% | viability, T/C (compound 3 µM) 2.33% and 0.42%

Cn1ncnc1C1c2n[nH]c(=O)c3cc(F)cc(c23)NC1c1ccc(F)cc1 (centres undefined) + NC1CCC(NC2CC2c2ccccc2)CC1
inactive: viability, T/C [6] 99.3% | viability, T/C [7] 107% | viability, T/C [8] 96.6% | viability, T/C [9] 98.3% | viability, T/C [10] 91.7% | viability, T/C [11] 92% | viability, T/C [12] 98% | viability, T/C [13] 114% | viability, T/C [14] 97.3% | viability, T/C [15] 103% | viability, T/C [16] 104% | viability, T/C [17] 82.8% | viability, T/C [18] 107% | viability, T/C [19] 102% | viability, T/C [20] 102% | viability, T/C [21] 98% | viability, T/C [22] 95.8% | viability, T/C [23] 87.9% | viability, T/C [24] 115% | viability, T/C [25] 117% | viability, T/C [26] 104% | viability, T/C [27] 100% | viability, T/C [28] 88.1% | viability, T/C [29] 104% | viability, T/C [30] 104% | viability, T/C [31] 130% | viability, T/C [32] 114% | viability, T/C [33] 95% | viability, T/C [34] 100% | viability, T/C [35] 89.7%
> 0.1 µM: IC50 [1] | IC50 [2] | IC50 [3] | IC50 [4] | IC50 [5]

CC(C)CC(NC(=O)CNC(=O)c1cc(Cl)ccc1Cl)B1OC(=O)CC(CC(=O)O)(C(=O)O)O1 (centres undefined) + NC1CCC(NC2CC2c2ccccc2)CC1
active: viability, T/C [10] 8.77% | viability, T/C [11] 0.58% | viability, T/C [22] 9.23% | viability, T/C [23] 7.49% | viability, T/C [28] 18.1% | viability, T/C [29] 0.81%
0.00752 µM: IC50 [5]
0.00791 µM: IC50 [3]
inactive: viability, T/C [6] 94.5% | viability, T/C [7] 109% | viability, T/C [8] 104% | viability, T/C [9] 45.1% | viability, T/C [12] 98.2% | viability, T/C [13] 108% | viability, T/C [14] 104% | viability, T/C [15] 43% | viability, T/C [16] 7.91% | viability, T/C [17] 17.4% | viability, T/C [18] 99.3% | viability, T/C [19] 97.2% | viability, T/C [20] 96.2% | viability, T/C [21] 38.2% | viability, T/C [24] 105% | viability, T/C [25] 112% | viability, T/C [26] 99% | viability, T/C [27] 36.5% | viability, T/C [30] 99% | viability, T/C [31] 104% | viability, T/C [32] 93.9% | viability, T/C [33] 35.5% | viability, T/C [34] 15.6% | viability, T/C [35] 13.8%
0.00875 µM: IC50 [2]
0.00793 µM: IC50 [4]
0.00907 µM: IC50 [1]

CCN(c1cc(-c2ccc(CN3CCOCC3)cc2)cc(C(=O)NCc2c(C)cc(C)[nH]c2=O)c1C)C1CCOCC1
inactive: viability, T/C (compound 0.00949 µM) 104% and 108% | viability, T/C (compound 0.03 µM) 97.2% and 107% | viability, T/C (compound 0.0949 µM) 104% and 96.1% | viability, T/C (compound 0.3 µM) 101% and 96.2% | viability, T/C (compound 0.949 µM) 82.7% and 79.5% | viability, T/C (compound 3 µM) 55.7% and 54.8%
> 3 µM: IC50 (curve of compound)
